The results in this text go back to PMC5863515, “Re-evaluation of Adrenocorticotropic Hormone and Melanocyte Stimulating Hormone Activation of GPR139 in Vitro” (Frontiers in Pharmacology, 2018).

One assay has as its target T1, MC3R + Gα16 (Homo sapiens, UniProt P41968).
T1 construct: expressed in transfected cells; host or cells: HEK-293, pCIneo, transient (10 μg MCR:5 μg Gα16)
The assay is described as follows: Calcium mobilization, HEK-293 transiently expressing MC3R + Gα16. The assay is classed as cell-based. The procedure: (§1) Human MC3R (NM_019888), MC4R (NM_005912), and MC5R (NM_005913) were transiently expressed in HEK-293 cells with and without human GPR139 (KR081941) or the chimeric G-protein Gα16. All genes were cloned into pCIneo (Promega, Madison, WI, United States, #E1841). HEK-293 cells were cultured in DMEM/F12 (Gibco, Grand Island, NY, United States, #11039-021), 10% FBS (Hyclone, Logan, UT, United States, # SH300700.03), 50 units/ml penicillin and 50 μg/ml streptomycin (Mediatech, Manassas, VA, United States, #30-001-CI). Cells were seeded at 4 × 10^6 cells in 10 cm dishes and allowed to grow overnight at 37°C, 5% CO2. On the day of transfection, culture media was replaced with F12-K (Mediatech, Manassas, VA, United States, #10-025-CV), 10% FBS, 20 mM HEPES (Hyclone, Logan, UT, United States, #SH30237.01) and transfected with 15 μg DNA (10 μg MCR:5 μg pCIneo, 10 μg MCR:5 μg Gα16 or 7.5 μg MCR:7.5 μg GPR139) using FuGene HD (Promega, Madison, WI, United States, #E2311) according to manufacturer’s instructions. MC3R, MC4R, and MC5R were also transiently expressed in the following GPR139 stably expressing cell lines using the FuGENE HD method: HEK-293 GPR139 clone#33, CHO-TREx GPR139 clone#18, and SK-N-MC/CRE TREx GPR139 clone#35. Stable cell lines were established according to method previously described ([Liu et al., 2015]).
(§2) Intracellular calcium mobilization was measured with the BD calcium kit (BD Bioscience, San Jose, CA, United States). The recombinant cell lines expressing MC3R, MC4R, and MC5R with and without GPR139 or Gα16 were seeded in culture media at a density of 50,000 cells/well into 96-well black/clear-bottom poly-D-lysine treated tissue culture plates. Cells were incubated overnight at 37°C and 5% CO2. Next day, culture media was removed and cells were washed with HBSS prior to dye-loading for 1 h at 37°C and 5% CO2. […] EC50s were calculated by fitting a three-parameter logistic curve using least-squares non-linear regression analysis as implemented in Graphpad Prism 7.0.
(Calcium assays in cells follow changes in intracellular calcium, usually with a dye or a luminescent sensor.)

The target of another assay is MC3R + GPR139 (Homo sapiens, UniProt Q6DWJ6). The assay is described as follows: Calcium mobilization, HEK-293 transiently expressing MC3R + GPR139. It is filed as cell-based.
The target of a further assay is MC4R + GPR139 (Homo sapiens, UniProt Q6DWJ6). In words: Calcium mobilization, HEK-293 transiently expressing MC4R + GPR139. It is filed as cell-based. The procedure: as §1
(§3) Intracellular calcium mobilization was measured with the BD calcium kit (BD Bioscience, San Jose, CA, United States). The recombinant cell lines expressing MC3R, MC4R, and MC5R with and without GPR139 or Gα16 were seeded in culture media at a density of 50,000 cells/well into 96-well black/clear-bottom poly-D-lysine treated tissue culture plates. Cells were incubated overnight at 37°C and 5% CO2. Next day, culture media was removed and cells were washed with HBSS prior to dye-loading for 1 h at 37°C and 5% CO2. Agonist stimulation and intracellular calcium measurements were done on the FLIPR Tetra (Molecular Devices, Sunnyvale, CA, United States). For receptor inhibition analysis, antagonists (1 μM HS-024 or 10 μM JNJ-3792165) were added off-line 15 min prior to agonist addition on the Tetra. For G-protein inhibitor experiments, cells were treated with 1 μM YM-254890 for 5 min prior to agonist additions on the Tetra. […] Responses in Figure 6 were normalized to its respective agonist response without antagonist. EC50s were calculated by fitting a three-parameter logistic curve using least-squares non-linear regression analysis as implemented in Graphpad Prism 7.0.

The next assay concerns the target T2, MC5R (Homo sapiens, UniProt P33032).
T2 construct: expressed in transfected cells; host or cells: HEK-293, pCIneo, transient (FuGene HD)
The assay is described as follows: Calcium mobilization, HEK-293 transiently expressing MC5R. The assay is classed as cell-based. To be noted: HEK-293 transient; read-out: Agonist potency (pEC50), MC5R (converted). The procedure: as §1, §2

For a further assay, the target named is T3, MC5R + Gα16 (Homo sapiens, UniProt P33032).
T3 construct: expressed in transfected cells; host or cells: HEK-293, pCIneo, transient (10 μg MCR:5 μg Gα16)
In words: Calcium mobilization, HEK-293 transiently expressing MC5R + Gα16. Conditions: HEK-293 transient; read-out: Agonist potency (pEC50), MC5R + Gα16 (converted). It is filed as cell-based. The procedure: as §1, §2

The next assay has as its target MC5R + GPR139 (Homo sapiens, UniProt Q6DWJ6). In words: Calcium mobilization, HEK-293 transiently expressing MC5R + GPR139. It is filed as cell-based. How it is done:
as §1, §3

The next assay concerns the target T4, GPR139 + MC3R (Homo sapiens, UniProt Q6DWJ6).
T4 construct: expressed in transfected cells; host or cells: HEK-293 GPR139 clone#33, MC3R transient (FuGENE HD)
T4 sequence (Q6DWJ6 1-353): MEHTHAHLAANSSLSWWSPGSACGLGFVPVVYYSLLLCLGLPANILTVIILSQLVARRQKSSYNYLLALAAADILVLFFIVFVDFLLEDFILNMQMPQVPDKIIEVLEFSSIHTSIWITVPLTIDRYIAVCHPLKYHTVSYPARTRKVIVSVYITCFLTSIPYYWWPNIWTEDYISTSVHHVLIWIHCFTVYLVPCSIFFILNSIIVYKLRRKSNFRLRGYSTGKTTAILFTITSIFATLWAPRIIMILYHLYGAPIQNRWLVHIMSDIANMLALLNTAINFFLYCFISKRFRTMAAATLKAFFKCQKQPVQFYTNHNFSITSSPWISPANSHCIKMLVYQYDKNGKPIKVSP
In words: Calcium mobilization, stable GPR139-HEK-293 cell line transiently expressing MC3R. The assay is classed as cell-based. How it is done: as §1, §2

The next assay concerns the target GPR139 + MC4R (Homo sapiens, UniProt Q6DWJ6). In words: Calcium mobilization, stable GPR139-HEK-293 cell line transiently expressing MC4R. It is filed as cell-based. How it is done: as §1, §2
For a further assay, the target named is GPR139 + MC5R (Homo sapiens, UniProt Q6DWJ6). The assay is described as follows: Calcium mobilization, stable GPR139-HEK-293 cell line transiently expressing MC5R. The assay is classed as cell-based. How it is done:
as §1, §2

The target in assay [1] is T5, GPR139 (Homo sapiens, UniProt Q6DWJ6).
T5 sequence (Q6DWJ6 1-353): T4 sequence (Q6DWJ6 1-353)
In words: [3H]JNJ-63533054 radioligand binding assay, membranes of CHO-TREx cells stably expressing human GPR139. On the set-up: expressed in transfected cells; host or cells: CHO-TREx GPR139 clone#18. The procedure:
Reaction was terminated by filtration through GF/C filterplates pre-treated with PEI (polyethyleneimine) followed by washes with ice-cold TE buffer. Filterplates were dried in a 60°C oven followed by addition of Microscint-0. Bound radioactivity was read on a Topcount scintillation counter. […] Half-maximal inhibitory concentrations (IC50s) of test compounds were calculated by fitting a three-parameter logistic curve using least-squares non-linear regression analysis as implemented in Graphpad Prism 7.0. The Top plateau was fixed at 100 and the Bottom was fixed at 0.

The target in assay [2] is T5, GPR139. The assay is described as follows: Calcium mobilization, CHO-TREx cells stably expressing human GPR139. On the set-up: expressed in transfected cells; host or cells: CHO-TREx GPR139 clone#18. It is filed as cell-based.
For assay [3], the target named is T5, GPR139. In words: Calcium mobilization, SK-N-MC/CRE cells stably expressing human GPR139. The assay is classed as cell-based. More on the design: expressed in transfected cells; host or cells: CHO-TREx GPR139 clone#18. How it is done: as §1, §3
Where [4] appears, read: HEK-293 transient, read-out: Agonist potency (pEC50), MC3R + Gα16 (converted).
Where [5] appears, read: read-out: Agonist potency (pEC50), stable GPR139-HEK-293 + MC3R (converted).
[6] abbreviates: 10 nM radioligand, CHO-TREx GPR139 membranes, read-out: pKi, displacement of [3H]JNJ-63533054 (converted).
[7] abbreviates: CHO-TREx stable GPR139, read-out: pEC50, calcium mobilization (converted).
Setting [8] is: SK-N-MC/CRE stable GPR139, read-out: pEC50, calcium mobilization (converted).

Structures are written as SMILES. Like-named read-outs stand apart in the source and are kept apart here.

T3 sequence (P33032 whole entry): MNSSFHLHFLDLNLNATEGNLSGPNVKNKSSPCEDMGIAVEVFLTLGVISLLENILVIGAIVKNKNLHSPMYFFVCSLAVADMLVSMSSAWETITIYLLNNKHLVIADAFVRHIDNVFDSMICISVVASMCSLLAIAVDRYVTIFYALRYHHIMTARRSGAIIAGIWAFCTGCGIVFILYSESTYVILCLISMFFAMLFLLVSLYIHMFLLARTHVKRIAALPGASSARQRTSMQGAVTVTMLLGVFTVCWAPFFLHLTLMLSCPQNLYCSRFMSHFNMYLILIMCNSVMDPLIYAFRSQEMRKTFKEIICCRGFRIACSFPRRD
T2 sequence (P33032 whole entry): as above
T1 sequence (P41968 whole entry): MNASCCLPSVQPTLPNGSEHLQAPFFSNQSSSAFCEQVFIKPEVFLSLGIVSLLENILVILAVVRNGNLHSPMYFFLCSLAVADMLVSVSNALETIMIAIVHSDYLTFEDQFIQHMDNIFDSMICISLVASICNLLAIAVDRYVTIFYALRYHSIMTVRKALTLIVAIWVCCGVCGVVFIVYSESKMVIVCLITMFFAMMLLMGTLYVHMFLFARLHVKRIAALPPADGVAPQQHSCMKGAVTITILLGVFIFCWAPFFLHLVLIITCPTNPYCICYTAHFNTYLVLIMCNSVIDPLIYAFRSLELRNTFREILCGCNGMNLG
MC4R + GPR139, sequence (P32245 whole entry partner, one chain of several): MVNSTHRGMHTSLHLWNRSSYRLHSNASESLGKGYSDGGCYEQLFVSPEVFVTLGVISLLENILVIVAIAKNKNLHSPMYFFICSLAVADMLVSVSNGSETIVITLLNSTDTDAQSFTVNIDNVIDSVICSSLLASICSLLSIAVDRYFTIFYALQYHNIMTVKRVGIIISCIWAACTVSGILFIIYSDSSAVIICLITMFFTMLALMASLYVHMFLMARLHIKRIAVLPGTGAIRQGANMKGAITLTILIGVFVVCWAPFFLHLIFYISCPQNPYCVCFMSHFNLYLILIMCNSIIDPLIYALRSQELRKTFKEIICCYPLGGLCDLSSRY
MC3R + GPR139, sequence (P41968 whole entry partner, one chain of several): as the sequence (P41968 whole entry) above
MC5R + GPR139, sequence (P33032 whole entry partner, one chain of several): as the sequence (P33032 whole entry) above
GPR139 + MC4R, sequence (P32245 whole entry partner, one chain of several): as the sequence (P32245 whole entry partner, one chain of several) above
GPR139 + MC5R, sequence (P33032 whole entry partner, one chain of several): as the sequence (P33032 whole entry) above
Method for MC3R + GPR139: Intracellular calcium mobilization was measured with the BD calcium kit (BD Bioscience, San Jose, CA, United States). The recombinant cell lines expressing MC3R, MC4R, and MC5R with and without GPR139 or Gα16 were seeded in culture media at a density of 50,000 cells/well into 96-well black/clear-bottom poly-D-lysine treated tissue culture plates. Cells were incubated overnight at 37°C and 5% CO2. Next day, culture media was removed and cells were washed with HBSS prior to dye-loading for 1 h at 37°C and 5% CO2. Agonist stimulation and intracellular calcium measurements were done on the FLIPR Tetra (Molecular Devices, Sunnyvale, CA, United States). […] EC50s were calculated by fitting a three-parameter logistic curve using least-squares non-linear regression analysis as implemented in Graphpad Prism 7.0.

As for `C[C@H](NC(=O)CNC(=O)c1cccc(Cl)c1)c1ccccc1` [JNJ-63533054, 3-chloro-N-[2-oxo-2-[[(1S)-1-phenylethyl]amino]ethyl]benzamide], the EC50 on MC3R + Gα16 (setting [4]) is more than 10 µM; at MC3R + GPR139, 0.0372 µM; at MC4R + GPR139 it was 0.0355 µM; at MC5R it was more than 10 µM; on MC5R + Gα16, more than 10 µM; on MC5R + GPR139 it was 0.0209 µM. For the same compound, the EC50 at GPR139 + MC3R (setting [5]) was 0.0204 µM; on GPR139 + MC4R, 0.0174 µM; on GPR139 [2] (setting [7]), 0.0132 µM; on GPR139 [3] (setting [8]) it was 0.0263 µM. In addition, the “Agonist potency (pEC50), MC3R + GPR139, No antagonist” value at MC3R + GPR139 was 7.43 ± 0.09. For the same compound, the “Agonist potency (pEC50), MC4R + GPR139, No antagonist” value on MC4R + GPR139 came to 7.45 ± 0.09. Also, at MC5R + GPR139, the “Agonist potency (pEC50), MC5R + GPR139, No antagonist” value turned out to be 7.68 ± 0.08. In addition, the “Agonist potency (pEC50), stable GPR139-HEK-293 + MC5R” value at GPR139 + MC5R was determined as 7.80 ± 0.07. For the same compound, the Ki at GPR139 [1] (setting [6]) was 0.0347 µM.
`N[C@@H](Cc1c[nH]c2ccccc12)C(=O)O` [L-Trp, L-tryptophan]: the EC50 on MC3R + Gα16 (setting [4]) was more than 3160 µM; at MC3R + GPR139, 87.1 µM; at MC4R + GPR139 it was 93.3 µM; at MC5R it was more than 3160 µM; at MC5R + Gα16, more than 3160 µM; at MC5R + GPR139, 95.5 µM. Besides, the EC50 was 126 µM at GPR139 + MC3R (setting [5]); 138 µM on GPR139 + MC4R; 162 µM on GPR139 + MC5R; 123 µM on GPR139 [2] (setting [7]); 398 µM on GPR139 [3] (setting [8]). Moreover, the “Agonist potency (pEC50), MC3R + GPR139, No antagonist” value at MC3R + GPR139 is 4.06 ± 0.06. In addition, the “Agonist potency (pEC50), MC4R + GPR139, No antagonist” value at MC4R + GPR139 is 4.03 ± 0.05. For the same compound, the “Agonist potency (pEC50), MC5R + GPR139, No antagonist” value on MC5R + GPR139 worked out at 4.02 ± 0.07. Besides, the Ki on GPR139 [1] (setting [6]) is 646 µM.
For `COc1cc(OC)cc(C(=O)NNC(=O)Nc2cccc3ccccc23)c1` [TC-O9311], the EC50 was more than 10 µM at MC3R + Gα16; 0.0692 µM at MC3R + GPR139; 0.0661 µM at MC4R + GPR139; more than 10 µM at MC5R; more than 10 µM on MC5R + Gα16; 0.0372 µM on MC5R + GPR139. Moreover, the EC50 on GPR139 + MC3R was 0.0501 µM; on GPR139 + MC4R, 0.0617 µM; on GPR139 + MC5R, 0.0417 µM; on GPR139 [2] it was 0.0398 µM; on GPR139 [3], 0.049 µM. In addition, the “Agonist potency (pEC50), MC3R + GPR139, No antagonist” value on MC3R + GPR139 amounted to 7.16 ± 0.08. In addition, the “Agonist potency (pEC50), MC4R + GPR139, No antagonist” value at MC4R + GPR139 worked out at 7.18 ± 0.08. Also, at MC5R + GPR139, the “Agonist potency (pEC50), MC5R + GPR139, No antagonist” value turned out to be 7.43 ± 0.06. In addition, the Ki at GPR139 [1] is 0.0891 µM.
